Measured values reported in patent publication US20260217702A1, “NOVEL IMIDAZOQUINOLINES WITH IMMUNOSTIMULATORY EFFECTS” (Synovo GmbH, priority 2022, published 2026).

How the values were obtained:
CT26 tumor = experiment: Application in cancer therapy: CT26 tumor in BALBc mice; format: in vivo; settings: i.p.
Description: Female BALBc mice carrying the CT26 tumor type are monitored until tumors are 100-150 mm^3 in volume. Animals are treated via injection i.p. with substances formulated at citrate salts in saline solution. Doses for E 1 are 3, 6 and 12 μmol/kg. At 12 μmol/kg, weight loss of ca. 5% is observed within 24 h. […] In a similar format, Female C57B6 mice carrying the MC38 tumor type co-injected with myofibroblasts (5 fibroblasts: 1 tumor cell-50,000, tumor cells) are monitored until tumors are 100-150 mm^3 in volume. Animals are treated via injection i.p. with either Vehicle or a Rat anti-PD-1 antibody (RMP1-14-CP157) 100 μg, or peritumoral 20 or 50 μg every 96 h. Certain groups receive the antibody alone, or receive in addition, E1 6 μmol/kg or E13 6 μmol/kg, other groups receive E1 and E13 alone at the same dose. Weight loss is similar to the study above and is between 5 and 8% of the starting weight for all treatments. Tumors treated with E1 or E13 alone remain static or decrease in size by up to 30% in size for up to 72 h following treatment. Tumors treated with E1 or E13 in combination with antiPD-1 decline (2 from 8) or are eliminated completely (6 from 8 animals) after the third antibody treatment.

IFNa relative to TNFa = experiment: Stimulation of cytokines in vivo (plasma cytokines, cytometric bead array); settings: female C57B6/J mice, i.p., 12 μmol/kg, citrate in saline, EDTA plasma at various times; reference Resiquimod
Description: Female C57B6/J mice ca 18-20g ca. 8 weeks old are treated i.p. with E1 or E13 (citrate in saline) at a dose of12 μmol/kg. The reference substance is Resiquimod. At various times after application blood samples of approximately 25 μl are taken from the tail vein. The resulting EDTA plasma is analysed for cytokines using a cytometric bead array.

SMILES: CCCCc1nc2c(N)nc3ccccc3c2n1CC1CCNCC1 [Example E1, 2-butyl-1-(piperidin-4-ylmethyl)-1H-imidazo[4,5-c]quinolin-4-amine]
- tumor size following treatment (CT26 tumor; CT26 tumors 100-150 mm^3 at start, doses 3, 6 and 12 μmol/kg, for up to 72 h following treatment): remain static in size
- weight loss (CT26 tumor; female BALBc mice with CT26 tumor, citrate salt in saline, 12 μmol/kg, within 24 h): ca. 5%
- secretion of IFNa relative to TNFa (ratio) compared to the reference (IFNa relative to TNFa): higher ratio

SMILES: CCCCc1nc2c(N)nc3ccccc3c2n1CCC1CCN(C(=O)CN(C)CC(=O)N(C)[C@H]2C[C@@H](C)O[C@@H](C[C@@H]3[C@@H](C)[C@H](O[C@H]4C[C@@](C)(OC)[C@@H](O)[C@H](C)O4)[C@@H](C)C(=O)O[C@H](CC)[C@@](C)(O)[C@H](O)[C@@H](C)N(C)C[C@H](C)C[C@@]3(C)O)[C@@H]2O)CC1 [Example E13]
- secretion of IFNa relative to TNFa (ratio) compared to the reference (IFNa relative to TNFa): higher ratio
